Reference: patent US20070129426A1, “Therapeutic drugs for arthritis” (Shanghai Ambrosia Pharmaceutical Co., Ltd., priority 2003, published 2007)

What was measured:
[1] = system: acute inflammation of mice ear caused by dimethylbenzene; test: Mice ear inflammation caused by dimethylbenzene; type: in vivo, Kunming mice; conditions: for Difference (mg) between left and right ear: 4 days, 2 h after dimethylbenzene, n=10
Procedure: Experimental animal: Kunming mice, body weight 18-22 g.
Method of administration: intraperitoneal injection. The doses of wedelolactone were 12.5 mg/kg and 25 mg/kg, respectively; the negative control used 0.5% CMC; the positive control used ibuprofen (25 mg/kg).
Method of experiment: The animals were divided randomly into 4 groups based on their body weights, 10 mice each group. The mice were administered with the test compound for 4 continuous days. On Day 4, both sides of the right ears of the mice were daubed evenly with 50 μl dimethylbenzene 2 hours after the administration. The left ears were not treated. The mice were left for 2 hours and then sacrificed by cervical dislocation. The ear specimens were obtained by punching both ears with a 8 mm hole-puncher. The specimens were weighed and the differences between the left and the right ears were used to evaluate the effect of the compound on the inflammation.

[2] = system: adjuvant-induced arthritis of rats; test: Adjuvant-induced arthritis of rats; type: in vivo, Male Wistar rats; conditions: for Left front paw thickness, Day 5 / Right front paw thickness, Day 5 / Right hind paw thickness, Day 5 / Right hind paw volume, Day 5 / Left hind paw thickness, Day 5 / Left hind paw volume, Day 5: day 5 after administration; for Left hind paw thickness, Day 5 / Left hind paw volume, Day 5 / Left hind paw thickness, Day 10 / Left hind paw volume, Day 10 / Left hind paw thickness, Day 15 / Left hind paw volume, Day 15 / Left hind paw thickness, Day 19 / Left hind paw volume, Day 19: adjuvant-injected paw; for Left front paw thickness, Day 10 / Right front paw thickness, Day 10 / Right hind paw thickness, Day 10 / Right hind paw volume, Day 10 / Left hind paw thickness, Day 10 / Left hind paw volume, Day 10: day 10 after administration; for Left front paw thickness, Day 15 / Right front paw thickness, Day 15 / Right hind paw thickness, Day 15 / Right hind paw volume, Day 15 / Left hind paw thickness, Day 15 / Left hind paw volume, Day 15: day 15 after administration; for Left front paw thickness, Day 19 / Right front paw thickness, Day 19 / Right hind paw thickness, Day 19 / Right hind paw volume, Day 19 / Left hind paw thickness, Day 19 / Left hind paw volume, Day 19: day 19 after administration
Procedure: Experimental animal: Male Wistar rats. Body weights were about 150 g.
Method of administration: intraperitoneal injection. The dose of wedelolactone was 0.25 mg/kg or 12.5 mg/kg, prepared in 0.5% CMC. The dose of methotrexate (MTX) is 0.2 mg/kg.
Method of experiment: The animals were divided randomly into 4 groups based on their body weights. They were adapted for 3 days before experiments. The left hind planta of the rats were injected subcutaneously with 0.1 ml CFA emulsion to induce inflammation. On the Day 10, after the administration of the adjuvant, the rats were injected intraperitoneally with 5 ml/kg test compound wedelolactone for 19 continuous days. On and after the day of administration of the adjuvant, the change of thickness of the four rat paws was measured daily using a vernier caliper, and the volume of the back paw were measured using a Plethysmometer. The data from day 5, 10, 15, and 19 after administration were used for statistic analyses.

[3] = system: delayed hypersensitivity of the collagen II-induced arthritic rats; test: Delayed hypersensitivity of collagen II-induced arthritic rats; type: in vivo, Male Wistar rats; conditions: 48 hr after type II collagen injection
Procedure: (§1) Experimental animal: Male Wistar rats. Body weights were about 120 g.
(§2) Administration method: intraperitoneal injection. The dose of wedelolactone is 6 or 12 mg/kg. Negative control used 0.5% CMC.
Experimental methods: 1). Preparation of type-II collagen. The fresh calf cartilages were ground at 4° C., immersed and washed with Tris-HCL2. The left residue was digested with pepsin. The supernatant was collected and salted out, followed by chromatography with DE-52 column to obtain type-II collagen. The collagen were dissolved in glacial acetic acid and mixed with Freund's adjuvant by grounding. Each of the animals, except the controls, was subcutaneously injected with a total of 2.5 mg/kg collagen at multiple sites of the tail root and back neck. […] The effects of the drug on the rat rheumatoid arthritis and the delayed-hypersensitivity were recorded. Starting from day 10 after the first immunization, the following data were recorded every 10 days: A) arthritis surface temperature (the surface temperature of both hind leg joints were measured by using a digital temperature recorder, and the temperature differences before and after the immunization was calculated). B) arthritis score (arthritis was scored following the method described in the literature. […] The thickness of the ear before and 48 hr after the injection was measured.

[4] = system: collagen-induced rat arthritis; test: Collagen-induced rat arthritis (joint surface temperature, inflammation score); type: in vivo, Male Wistar rats; conditions: for inflammation score, Day 10 / inflammation score, Day 20 / inflammation score, Day 30: highest total score 16 points; for Joint surface temperature difference (° C.), Day 10: day 10 after first immunization; for Joint surface temperature difference (° C.), Day 20: day 20 after first immunization; for Joint surface temperature difference (° C.), Day 30: day 30 after first immunization
Procedure: as §1, §2
Experimental methods: 1). Preparation of type-II collagen. The fresh calf cartilages were ground at 4° C., immersed and washed with Tris-HCL2. The left residue was digested with pepsin. The supernatant was collected and salted out, followed by chromatography with DE-52 column to obtain type-II collagen. The collagen were dissolved in glacial acetic acid and mixed with Freund's adjuvant by grounding. Each of the animals, except the controls, was subcutaneously injected with a total of 2.5 mg/kg collagen at multiple sites of the tail root and back neck. 7 days thereafter, the animals were boostered by subcutaneous administration with 1.0 mg/kg collagen in the tail root and back neck. The immunized animals were divided randomly into 4 groups based on their body weight, 10 mice in each group. The four groups were modeling blank group, modeling control group, low dose wedelolactone group, and high dose wedelolactone group. The daily administration started at day 10 after the first immunization for 3 weeks continuously. The effects of the drug on the rat rheumatoid arthritis and the delayed-hypersensitivity were recorded. Starting from day 10 after the first immunization, the following data were recorded every 10 days: A) arthritis surface temperature (the surface temperature of both hind leg joints were measured by using a digital temperature recorder, and the temperature differences before and after the immunization was calculated). B) arthritis score (arthritis was scored following the method described in the literature. 1 point: inflammation in one area of paws or planta; 2 points: inflammation in more than two areas of paws or planta; 3 points: mild inflammation in the whole legs; 4 points: severe inflammation causing joint rigidity, deformation and dysfunction. The highest score for each paw is 4 points. The highest total score for each rat is 16 points. C) Delayed-hypersensitivity measurement. At day 24, 10 μl type II collagen containing solution was injected subcutaneously in the back of the right ear of each rat. The thickness of the ear before and 48 hr after the injection was measured.

COc1cc(O)c2c(c1)oc(=O)c1c3cc(O)c(O)cc3oc21 [wedelolactone]
Difference (mg) between left and right ear ([1]; 12.5 mg/kg i.p.): 11.3 ± 3.6 mg | Difference (mg) between left and right ear ([1]; 25 mg/kg i.p.): 10.9 ± 4.6 mg | Inhibition of mice ear inflammation caused by dimethylbenzene ([1]; 12.5 and 25 mg/kg i.p.): could inhibit the inflammation of the mice ear caused by dimethylbenzene | Primary inflammation of the left foot and secondary inflammation of the right foot (FIG. 4) ([2]; 0.25 mg/kg): prone to be alleviated | Left front paw thickness, Day 5 ([2]; 0.25 mg/kg i.p.): 4.20 ± 0.11 mm | Right front paw thickness, Day 5 ([2]; 0.25 mg/kg i.p.): 4.13 ± 0.15 mm | Right hind paw thickness, Day 5 ([2]; 0.25 mg/kg i.p.): 5.05 ± 0.24 mm | Right hind paw volume, Day 5 ([2]; 0.25 mg/kg i.p.): 1.18 ± 0.05 mL | Left hind paw thickness, Day 5 ([2]; 0.25 mg/kg i.p.): 7.10 ± 0.83 mm | Left hind paw volume, Day 5 ([2]; 0.25 mg/kg i.p.): 1.85 ± 0.24 mL | Left front paw thickness, Day 10 ([2]; 0.25 mg/kg i.p.): 4.71 ± 0.24 mm | Right front paw thickness, Day 10 ([2]; 0.25 mg/kg i.p.): 4.66 ± 0.09 mm | Right hind paw thickness, Day 10 ([2]; 0.25 mg/kg i.p.): 5.28 ± 0.38 mm | Right hind paw volume, Day 10 ([2]; 0.25 mg/kg i.p.): 1.16 ± 0.08 mL | Left hind paw thickness, Day 10 ([2]; 0.25 mg/kg i.p.): 8.18 ± 1.22 mm | Left hind paw volume, Day 10 ([2]; 0.25 mg/kg i.p.): 2.38 ± 0.30 mL | Left front paw thickness, Day 15 ([2]; 0.25 mg/kg i.p.): 4.61 ± 0.10 mm | Right front paw thickness, Day 15 ([2]; 0.25 mg/kg i.p.): 4.54 ± 0.15 mm | Right hind paw thickness, Day 15 ([2]; 0.25 mg/kg i.p.): 5.15 ± 0.35 mm | Right hind paw volume, Day 15 ([2]; 0.25 mg/kg i.p.): 1.29 ± 0.13 mL | Left hind paw thickness, Day 15 ([2]; 0.25 mg/kg i.p.): 8.51 ± 0.91 mm | Left hind paw volume, Day 15 ([2]; 0.25 mg/kg i.p.): 2.63 ± 0.37 mL | Left front paw thickness, Day 19 ([2]; 0.25 mg/kg i.p.): 4.64 ± 0.17 mm | Right front paw thickness, Day 19 ([2]; 0.25 mg/kg i.p.): 4.59 ± 0.15 mm | Right hind paw thickness, Day 19 ([2]; 0.25 mg/kg i.p.): 5.23 ± 0.23 mm | Right hind paw volume, Day 19 ([2]; 0.25 mg/kg i.p.): 1.36 ± 0.12 mL | Left hind paw thickness, Day 19 ([2]; 0.25 mg/kg i.p.): 8.49 ± 1.06 mm | Left hind paw volume, Day 19 ([2]; 0.25 mg/kg i.p.): 2.61 ± 0.42 mL | Primary inflammation of the left foot and secondary inflammation of the right foot (FIG. 3) ([2]; 12.5 mg/kg): alleviated | Left front paw thickness, Day 5 ([2]; 12.5 mg/kg i.p.): 4.11 ± 0.11 mm | Right front paw thickness, Day 5 ([2]; 12.5 mg/kg i.p.): 4.01 ± 0.17 mm | Right hind paw thickness, Day 5 ([2]; 12.5 mg/kg i.p.): 4.95 ± 0.27 mm | Right hind paw volume, Day 5 ([2]; 12.5 mg/kg i.p.): 1.10 ± 0.10 mL | Left hind paw thickness, Day 5 ([2]; 12.5 mg/kg i.p.): 7.13 ± 0.96 mm | Left hind paw volume, Day 5 ([2]; 12.5 mg/kg i.p.): 1.64 ± 0.31 mL | Left front paw thickness, Day 10 ([2]; 12.5 mg/kg i.p.): 4.03 ± 0.13 mm | Right front paw thickness, Day 10 ([2]; 12.5 mg/kg i.p.): 3.95 ± 0.12 mm | Right hind paw thickness, Day 10 ([2]; 12.5 mg/kg i.p.): 5.05 ± 0.25 mm | Right hind paw volume, Day 10 ([2]; 12.5 mg/kg i.p.): 1.03 ± 0.10 mL | Left hind paw thickness, Day 10 ([2]; 12.5 mg/kg i.p.): 8.09 ± 1.05 mm | Left hind paw volume, Day 10 ([2]; 12.5 mg/kg i.p.): 2.14 ± 0.45 mL | Left front paw thickness, Day 15 ([2]; 12.5 mg/kg i.p.): 4.11 ± 0.16 mm | Right front paw thickness, Day 15 ([2]; 12.5 mg/kg i.p.): 4.11 ± 0.16 mm | Right hind paw thickness, Day 15 ([2]; 12.5 mg/kg i.p.): 5.20 ± 0.23 mm | Right hind paw volume, Day 15 ([2]; 12.5 mg/kg i.p.): 1.24 ± 0.16 mL | Left hind paw thickness, Day 15 ([2]; 12.5 mg/kg i.p.): 8.44 ± 1.63 mm | Left hind paw volume, Day 15 ([2]; 12.5 mg/kg i.p.): 2.42 ± 0.62 mL | Left front paw thickness, Day 19 ([2]; 12.5 mg/kg i.p.): 4.04 ± 0.14 mm | Right front paw thickness, Day 19 ([2]; 12.5 mg/kg i.p.): 4.04 ± 0.07 mm | Right hind paw thickness, Day 19 ([2]; 12.5 mg/kg i.p.): 4.98 ± 0.10 mm | Right hind paw volume, Day 19 ([2]; 12.5 mg/kg i.p.): 1.19 ± 0.08 mL | Left hind paw thickness, Day 19 ([2]; 12.5 mg/kg i.p.): 8.53 ± 1.33 mm | Left hind paw volume, Day 19 ([2]; 12.5 mg/kg i.p.): 2.46 ± 0.75 mL | Inhibition of rat adjuvant arthritis ([2]; 0.25 or 12.5 mg/kg i.p., 19 days): could effectively inhibit rat adjuvant arthritis | Increased thickness of the right ear (mm) ([3]; 6 mg/kg i.p.): 0.231 ± 0.113 mm | Increased thickness of the right ear (mm) ([3]; 12 mg/kg i.p.): 0.194 ± 0.115 mm | inflammation score, Day 10 ([4]; 6 mg/kg i.p.): 4.00 ± 2.02 | Joint surface temperature difference (° C.), Day 10 ([4]; 6 mg/kg i.p.): 1.42 ± 0.74 °C | inflammation score, Day 20 ([4]; 6 mg/kg i.p.): 3.10 ± 1.45 | Joint surface temperature difference (° C.), Day 20 ([4]; 6 mg/kg i.p.): 0.83 ± 0.44 °C | inflammation score, Day 30 ([4]; 6 mg/kg i.p.): 2.7 ± 1.35 | Joint surface temperature difference (° C.), Day 30 ([4]; 6 mg/kg i.p.): 0.72 ± 0.40 °C | inflammation score, Day 10 ([4]; 12 mg/kg i.p.): 4.10 ± 2.08 | Joint surface temperature difference (° C.), Day 10 ([4]; 12 mg/kg i.p.): 1.36 ± 0.50 °C | inflammation score, Day 20 ([4]; 12 mg/kg i.p.): 2.00 ± 1.41 | Joint surface temperature difference (° C.), Day 20 ([4]; 12 mg/kg i.p.): 0.73 ± 0.45 °C | inflammation score, Day 30 ([4]; 12 mg/kg i.p.): 1.40 ± 1.02 | Joint surface temperature difference (° C.), Day 30 ([4]; 12 mg/kg i.p.): 0.48 ± 0.39 °C | Inhibition of collagen-induced rat arthritis ([4]; 6 or 12 mg/kg i.p., 3 weeks): can effectively inhibit the collagen-induced rat arthritis
